pIC50: −log10 of the molar value. Where “and” joins values, the source holds several entries; their conditions need not be identical. Equal entries are not always repeated.
Test system: 556581-035-R-J1-PDC complex spheroid viability
Assay: Anticancer human tumor 556581-035-R-J1-PDC patient-derived ovarian carcinoma cell line growth inhibition
Details: for viability, T/C: stronger effect = lower value
Summary of the method: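 Multicellular complex spheroids of tumor cells with human endothelial cells (HUVEC) and mesenchymal stem cells; the LSD1 inhibitor iadademstat was combined with standard-of-care or investigational agents. Top concentration at or near clinical Cmax, half-log dilutions; final DMSO ≤0.25%.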

[1] = curve of first compound, second compound 0.1 µM
[2] = curve of first compound, second compound 0.316 µM
[3] = curve of first compound, second compound 1 µM
[4] = curve of first compound, second compound 3.16 µM
[5] = curve of first compound, second compound 10 µM
[6] = second compound 0.1 µM, first compound 0.0316 µM
[7] = second compound 0.1 µM, first compound 0.1 µM
[8] = second compound 0.1 µM, first compound 0.316 µM
[9] = second compound 0.1 µM, first compound 1 µM
[10] = second compound 0.316 µM, first compound 0.0316 µM
[11] = second compound 0.316 µM, first compound 0.1 µM
[12] = second compound 0.316 µM, first compound 0.316 µM
[13] = second compound 0.316 µM, first compound 1 µM
[14] = second compound 1 µM, first compound 0.0316 µM
[15] = second compound 1 µM, first compound 0.1 µM
[16] = second compound 1 µM, first compound 0.316 µM
[17] = second compound 1 µM, first compound 1 µM
[18] = second compound 3.16 µM, first compound 0.0316 µM
[19] = second compound 3.16 µM, first compound 0.1 µM
[20] = second compound 3.16 µM, first compound 0.316 µM
[21] = second compound 3.16 µM, first compound 1 µM
[22] = second compound 10 µM, first compound 0.0316 µM
[23] = second compound 10 µM, first compound 0.1 µM
[24] = second compound 10 µM, first compound 0.316 µM
[25] = second compound 10 µM, first compound 1 µM
[26] = second compound 0.1 µM, first compound 0.00316 µM
[27] = second compound 0.1 µM, first compound 0.01 µM
[28] = second compound 0.316 µM, first compound 0.00316 µM
[29] = second compound 0.316 µM, first compound 0.01 µM
[30] = second compound 1 µM, first compound 0.00316 µM
[31] = second compound 1 µM, first compound 0.01 µM
[32] = second compound 3.16 µM, first compound 0.00316 µM
[33] = second compound 3.16 µM, first compound 0.01 µM
[34] = second compound 10 µM, first compound 0.00316 µM
[35] = second compound 10 µM, first compound 0.01 µM
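Also: spheroids exposed to agents for seven days.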
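For viability, T/C in this document: 100% = DMSO vehicle control wells.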

O=C(c1cc(Cc2n[nH]c(=O)c3ccccc23)ccc1F)N1CCN(C(=O)C2CC2)CC1 + NC1CCC(NC2CC2c2ccccc2)CC1
pIC50 [1]: < 5.00 | pIC50 [2]: < 5.00 | pIC50 [3]: < 5.00 | pIC50 [4]: < 5.00 | pIC50 [5]: < 5.00 | viability, T/C [6]: 85.8% | viability, T/C [7]: 93.2% | viability, T/C [8]: 91.7% | viability, T/C [9]: 85.3% | viability, T/C (second compound 0.1 µM, first compound 3.16 µM): 83.9% | viability, T/C (second compound 0.1 µM, first compound 10 µM): 65% | viability, T/C [10]: 87.2% | viability, T/C [11]: 93.7% | viability, T/C [12]: 90.7% | viability, T/C [13]: 86% | viability, T/C (second compound 0.316 µM, first compound 3.16 µM): 62.8% | viability, T/C (second compound 0.316 µM, first compound 10 µM): 65.8% | viability, T/C [14]: 77.4% | viability, T/C [15]: 84.4% | viability, T/C [16]: 83.6% | viability, T/C [17]: 78.6% | viability, T/C (second compound 1 µM, first compound 3.16 µM): 72.6% | viability, T/C (second compound 1 µM, first compound 10 µM): 61.3% | viability, T/C [18]: 74.5% | viability, T/C [19]: 73.9% | viability, T/C [20]: 77.6% | viability, T/C [21]: 66.3% | viability, T/C (second compound 3.16 µM, first compound 3.16 µM): 58.1% | viability, T/C (second compound 3.16 µM, first compound 10 µM): 66.5% | viability, T/C [22]: 74.2% | viability, T/C [23]: 77.5% | viability, T/C [24]: 69% | viability, T/C [25]: 69.4% | viability, T/C (second compound 10 µM, first compound 3.16 µM): 58.7% | viability, T/C (second compound 10 µM, first compound 10 µM): 55.9%

CC(C)CC(NC(=O)CNC(=O)c1cc(Cl)ccc1Cl)B1OC(=O)CC(CC(=O)O)(C(=O)O)O1 (configuration not stated) + NC1CC1c1ccc(-c2cccc(O)c2)cc1
pIC50 [1]: 8.61 | pIC50 [2]: 8.55 | pIC50 [3]: 8.56 | pIC50 [4]: 8.57 | pIC50 [5]: 8.56 | viability, T/C (second compound 0.1 µM, first compound 0.000316 µM): 85.1% | viability, T/C (second compound 0.1 µM, first compound 0.001 µM): 95.6% | viability, T/C [26]: 38.2% | viability, T/C [27]: 2.07% | viability, T/C [6]: 0.71% | viability, T/C [7]: 0.3% | viability, T/C (second compound 0.316 µM, first compound 0.000316 µM): 85.4% | viability, T/C (second compound 0.316 µM, first compound 0.001 µM): 96% | viability, T/C [28]: 45.8% | viability, T/C [29]: 1.79% | viability, T/C [10]: 1.03% | viability, T/C [11]: 0.98% | viability, T/C (second compound 1 µM, first compound 0.000316 µM): 91% | viability, T/C (second compound 1 µM, first compound 0.001 µM): 95% | viability, T/C [30]: 44.5% | viability, T/C [31]: 0.78% | viability, T/C [14]: 0.36% | viability, T/C [15]: 0.22% | viability, T/C (second compound 3.16 µM, first compound 0.000316 µM): 82.8% | viability, T/C (second compound 3.16 µM, first compound 0.001 µM): 85% | viability, T/C [32]: 44.1% | viability, T/C [33]: 0.89% | viability, T/C [18]: 0.65% | viability, T/C [19]: 0.31% | viability, T/C (second compound 10 µM, first compound 0.000316 µM): 85.4% | viability, T/C (second compound 10 µM, first compound 0.001 µM): 74.8% | viability, T/C [34]: 47.1% | viability, T/C [35]: 3.21% | viability, T/C [22]: 0.15% | viability, T/C [23]: 1.14%

O=C(C=Cn1cnc(-c2cc(C(F)(F)F)cc(C(F)(F)F)c2)n1)NNc1cnccn1 + NC1CC1c1ccc(-c2cccc(O)c2)cc1
pIC50 [1]: 7.39 | pIC50 [2]: 7.29 | pIC50 [3]: 7.15 | pIC50 [4]: 7.13 | pIC50 [5]: 7.10 | viability, T/C [26]: 68% | viability, T/C [27]: 63.7% | viability, T/C [6]: 52.4% | viability, T/C [7]: 38.5% | viability, T/C [8]: 16.9% | viability, T/C [9]: 6.78% | viability, T/C [28]: 74.5% | viability, T/C [29]: 73.1% | viability, T/C [10]: 61.4% | viability, T/C [11]: 32.6% | viability, T/C [12]: 22.7% | viability, T/C [13]: 4.35% | viability, T/C [30]: 76.9% | viability, T/C [31]: 74.2% | viability, T/C [14]: 72.3% | viability, T/C [15]: 40.1% | viability, T/C [16]: 17.2% | viability, T/C [17]: 10.3% | viability, T/C [32]: 73.1% | viability, T/C [33]: 74.3% | viability, T/C [18]: 61% | viability, T/C [19]: 43.7% | viability, T/C [20]: 28% | viability, T/C [21]: 8% | viability, T/C [34]: 71.3% | viability, T/C [35]: 77.7% | viability, T/C [22]: 56.5% | viability, T/C [23]: 52.3% | viability, T/C [24]: 20.2% | viability, T/C [25]: 13.4%

Nc1ncn(C2CC(O)C(CO)O2)c(=O)n1 (configuration not stated)
viability, T/C (compound 0.00316 µM): 98.7% and 115% | viability, T/C (compound 0.01 µM): 102% and 100% | viability, T/C (compound 0.0316 µM): 108% and 99.9% | viability, T/C (compound 0.1 µM): 84.2% and 79.4% | viability, T/C (compound 0.316 µM): 88.6% and 107% | viability, T/C (compound 1 µM): 80.9% and 101% | pIC50 (curve of compound): < 6.00

From PubChem BioAssay AID1918938 (Molecular Pharmacology Branch, DTP, NCI, 2023)
